Test results reported in patent publication US20240389593A1, “HETEROCYCLIC COMPOUND AND USE THEREOF” (KUMIAI CHEMICAL INDUSTRY CO., LTD., priority 2021, published 2024).

Columns and labels:
Type in all cases: in vivo
Plutella xylostella = experiment: Test on insecticidal activity in Plutella xylostella (cabbage leaf dip); details: foliar, 144 h, 500 ppm active ingredient (wettable powder diluted with water), cabbage leaves dipped, second-instar larvae, 25° C., 6 days after treatment
Method: (§1) A wettable powder prepared according to formulation example 2 was diluted with water to a concentration of 500 ppm as the active ingredient. Some cabbage leaves were dipped in the drug solution, air-dried, and then placed in a plastic cup. Ten second-instar larvae of Plutella xylostella were put on the treated leaves, and the cup was covered with a lid. Then, it was placed in a room at constant temperature of 25° C. The number of dead insects was investigated at 6 days after treatment. Mortality rate was calculated using the formula 1. The number of replication was one in each test.

Helicoverpa armigera = experiment: Test on insecticidal activity in Helicoverpa armigera (cabbage leaf dip); details: foliar, 144 h, 500 ppm active ingredient (wettable powder diluted with water), cabbage leaves dipped, hatching larvae, 25° C., 6 days after treatment
Method: as §1, with “Five hatching” for “Ten second-instar”, “Helicoverpa armigera” for “Plutella xylostella”, “after the” for “after”, “two” for “one”

Aphis gossypii = experiment: Test on pest control effect in Aphis gossypii (cucumber nursery plant dip); details: 72 h, 500 ppm active ingredient (wettable powder diluted with water), cucumber nursery plants inoculated with larvae dipped, 25° C., 3 days after treatment
Method: [Test example 4] Test on pest control effect in Aphis gossypii A wettable powder prepared according to formulation example 2 was diluted with water to a concentration of 500 ppm as the active ingredient. Some nursery plant of cucumber previously inoculated with larvae of Aphis gossypii were dipped in the drug solution and air-dried. The treated nursery plants of cucumber were placed in a room at constant temperature of 25° C. The number of surviving insects was counted at 3 days after the treatment. Mortality rate was calculated using the formula 1. The number of replication was one in each test.

Nilaparvata lugens = experiment: Test on insecticidal activity in Nilaparvata lugens (rice sprout dip); details: 144 h, 500 ppm active ingredient (wettable powder diluted with water), rice sprouts dipped, second-instar larvae, 25° C., 6 days after treatment
Method: A wettable powder prepared according to formulation example 2 was diluted with water to a concentration of 500 ppm as the active ingredient. Some rice sprouts were dipped in the drug solution and placed in a plastic cup. Ten second-instar larvae of Nilaparvata lugens were put on the treated leaves, and the cup was covered with a lid. Then, it was placed in a constant room temperature of 25° C. The number of dead insects was investigated at 6 days after the treatment. Mortality rate was calculated using the formula 1. The number of replication was one in each test.

Measured: mortality at 500 ppm

CCS(=O)(=O)c1c(-n2cc(OCC(F)(F)C(F)(F)C(F)(F)F)cn2)nc2ccc(Br)cn12 [A-0039, 6-bromo-3-(ethylsulfonyl)-2-[4-(2,2,3,3,4,4,4-heptafluorobutoxy)-1H-pyrazol-1-yl] imidazo [1,2-a] pyridine]
≥ 90%: all assays above

CCS(=O)(=O)c1c(-n2cc(OCC(F)(F)C(F)(F)C(F)(F)F)cn2)nc2ccc(C(F)(F)F)cn12 [A-0046, 3-(ethylsulfonyl)-2-[4-(2,2,3,3,4,4,4-heptafluorobutoxy)-1H-pyrazol-1-yl]-6-(trifluoromethyl)imidazo[1,2-a]pyridine]
≥ 90%: all assays above

CCS(=O)(=O)c1c(-n2cc(OCC(F)(F)C(F)(F)C(F)(F)F)cn2)nc2ccc(C3CC3)cn12 [A-0049, 6-cyclopropyl-3-(ethylsulfonyl)-2-[4-(2,2,3,3,4,4,4-heptafluorobutoxy)-1H-pyrazol-1-yl] imidazo [1,2-a] pyridine]
≥ 90%: all assays above
